Data as given in BindingDB's records for PubMed 32092586 (Zhengzhou University, 2020).

Molecular target: Ubiquitin carboxyl-terminal hydrolase 7 (Homo sapiens, UniProt Q93009)
Assay: Inhibition of human USP7 using Ub-AMC as substrate

Chain of Ubiquitin carboxyl-terminal hydrolase 7 (Q93009 whole entry): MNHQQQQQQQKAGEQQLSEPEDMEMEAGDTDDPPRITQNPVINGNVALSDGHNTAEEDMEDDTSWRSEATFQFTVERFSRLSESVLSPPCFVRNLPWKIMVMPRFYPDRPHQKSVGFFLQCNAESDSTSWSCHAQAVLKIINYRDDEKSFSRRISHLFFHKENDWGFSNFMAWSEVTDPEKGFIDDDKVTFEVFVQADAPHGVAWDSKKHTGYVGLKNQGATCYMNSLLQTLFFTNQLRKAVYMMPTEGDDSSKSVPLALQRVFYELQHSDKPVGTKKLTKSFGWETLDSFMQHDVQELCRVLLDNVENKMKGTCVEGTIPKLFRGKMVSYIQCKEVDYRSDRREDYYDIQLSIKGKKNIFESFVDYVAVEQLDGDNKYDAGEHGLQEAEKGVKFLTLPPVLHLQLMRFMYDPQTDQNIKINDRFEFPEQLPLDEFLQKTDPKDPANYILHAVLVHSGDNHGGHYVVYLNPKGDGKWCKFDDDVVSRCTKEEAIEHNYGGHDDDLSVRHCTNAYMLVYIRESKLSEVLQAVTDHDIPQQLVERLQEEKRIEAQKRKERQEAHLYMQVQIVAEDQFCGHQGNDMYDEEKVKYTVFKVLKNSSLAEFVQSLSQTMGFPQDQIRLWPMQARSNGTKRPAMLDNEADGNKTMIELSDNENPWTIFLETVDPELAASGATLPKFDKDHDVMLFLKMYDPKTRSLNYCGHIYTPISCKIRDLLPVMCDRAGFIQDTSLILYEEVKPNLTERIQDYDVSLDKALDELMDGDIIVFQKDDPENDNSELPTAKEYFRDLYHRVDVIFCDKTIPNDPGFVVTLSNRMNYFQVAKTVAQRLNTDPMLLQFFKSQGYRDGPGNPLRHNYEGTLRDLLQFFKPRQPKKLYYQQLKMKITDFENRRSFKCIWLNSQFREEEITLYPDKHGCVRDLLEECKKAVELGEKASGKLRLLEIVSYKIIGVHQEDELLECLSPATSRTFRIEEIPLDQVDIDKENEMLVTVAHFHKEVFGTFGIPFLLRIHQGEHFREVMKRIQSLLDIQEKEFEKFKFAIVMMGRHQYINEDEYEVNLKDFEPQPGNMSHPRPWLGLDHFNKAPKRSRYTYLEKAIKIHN

Q: For C[C@H](CC(=O)N1CCC(O)(Cn2cnc3cc(NC(=O)CCN4CCN(C)CC4)ccc3c2=O)CC1)c1ccccc1, which IC50 is on record?
A: 90 nM
